We go through 1 molecule from patent publication US20200338028A1, “BENZENESULFONAMIDE DERIVATIVES AND METHOD FOR MODULATING LIPID RAFT” (Gongwin Biopharm Co., Ltd., priority 2017, published 2020).

Like-named read-outs stand apart in the source and are kept apart here.

Assay [1] has as its system PC-3 cells. Kind of assay: SRB assay, anti-proliferative effect. Type of assay: cell-based. As to conditions: Homo sapiens. As to the method: Two castration-resistant prostate cancer (CRPC) cell lines of PC-3 and DU-145 were cultured in RPMI 1640 medium with 5% FBS (v/v), penicillin (100 units/ml) and streptomycin (100 μg/ml). Cultures were maintained in a 37° C. incubator with 5% CO2, and adherent cultures were passaged using 0.05% trypsin-EDTA when they reached about 80% confluence. Prostate cells were from human tissue samples which were obtained following informed consent of the donors and after full review by the Ethics Review Committee at National Taiwan University Hospital. The prostate specimens were from males by transurethral resection of the prostate. All patients with prostatism histories were diagnosed to have benign prostate hyperplasia by rectal digital examination, transrectal sonography of prostate and urodynamic studies. Isolation of human prostatic cells from prostatic tissue explants was described in the previous study. The prostate cells were with less amount lipid rafts compared to prostate cancer cells.
SRB assay, colonogenic assay, and carboxyfluorescein succinimidyl ester (CFSE) staining were used for anti-proliferative determination. SRB assay is an accurate and reproducible assay based upon quantitative SRB staining of cellular proteins, and the process for SRB assay was performed as follows. Each individual PC-3 and DU-145 cells were seeded in 96-well plates in medium with 10% FBS. After 24 h, PC-3 and DU-145 cells were fixed with 10% TCA to represent cell population at the time of p-TSA addition. […] The absorbance of SRB was measured at a wavelength of 515 nm at the time of p-TSA addition (hereinafter referred to as time zero, TZ), and after additional incubation of DMSO (hereinafter referred to as control growth, CTL) or p-TSA (hereinafter referred to as Tx). The percentage of cell growth inhibition was calculated by the formula of [1−(Tx−TZ)/(CTL−TZ)]×100%. […]
To further substantiate the role of Akt, the Myr-Akt overexpressed PC-3 cells were prepared with the method shown as follows. […] Furthermore, the functional rescue of Myr-Akt was determined. […]

The test system of assay [2] is PC-3 cells. Kind of assay: Western blot of Bcl-2 family members, cell cycle regulators and Akt/mTOR/p70S6K pathway signals. The assay is classed as cell-based, human. How it is done:
(§1) In addition, protein expression assay of each Mcl-1, Bcl-2, Bid, PUMA and Bak was performed by western blotting with methods described as follows. After treatment of PC-3 and DU145 cells with p-TSA, the cells were harvested with trypsinization, centrifuged and lysed in 0.1 ml of lysis buffer containing 10 mM Tris-HCl (pH 7.4), 150 mM NaCl, 1 mM EGTA, 1% Triton X-100, 1 mM PMSF, 10 μg/ml leupeptin, 10 μg/ml aprotinin, 50 mM NaF and 100 μM sodium orthovanadate. Total protein was quantified, mixed with the sample buffer and boiled at 90° C. for 5 min. Equal amount of protein (30 μg) was separated by electrophoresis in 8% or 12% SDS-PAGE, transferred to PVDF membranes and detected with specific antibodies (1:1000 dilution) for each of Mcl-1, Bcl-2, Bid, PUMA and Bak proteins. The immunoreactive proteins after incubation with appropriately labeled secondary antibody (1:3000 dilution) were detected with an enhanced chemiluminescence detection kit (Amersham, Buckinghamshire, United Kingdom). […] These effects were correlated with the mitochondrial stress.
(§2) During G1 phase, cells grow in size and synthesize mRNA and proteins which are necessary to DNA synthesis. The serine/threonine kinases mTOR and p70S6K that regulate protein synthesis (mRNA translation) through affecting the phosphorylation or activities of several downstream translation factors are critical regulators in G1 phase. Protein expression assay of each Akt, mTOR 4E-BP1 and p70S6K was performed by Western blotting.
A general note: A western blot detects proteins with antibodies after separation by electrophoresis.

Assay [3] concerns DU-145 cells. The assay is described as above. The assay is classed as cell-based, human. As to the method:
as §1, §2

The subject of assay [4] is DU-145 cells. Kind of assay: colony formation (clonogenic) assay. The assay is classed as cell-based, human. The settings on record: DU-145, 10 days, FIG. 1B. As to the method: To assay the anchorage-dependent clonogenic effect, each individual PC-3 and DU-145 cells (150 cells/well) were seeded in a 6-well plate. After a 10-day treatment with p-TSA, the cell colonies were rinsed with phosphate-buffered saline (PBS), stained with 0.4% (w/v) crystal violet dissolved in 20% methanol, and lysed by 50 mM sodium citrate dissolved in 50% ethanol. The absorbance was read at a wavelength of 595 nm.

`Cc1ccc(S(N)(=O)=O)cc1` [p-TSA, para-toluenesulfonamide]: the IC50 with PC-3 cells [1] (PC-3, 48 h, PC-3 overexpressing constitutively active Myr-Akt, 48 hours, FIG. 4E, read-out: IC50, growth inhibition, SRB assay) is 2180 ± 100 µM; in the assay on PC-3 cells [1] (PC-3, 48 h, PC-3 without Myr-Akt overexpression, 48 hours, FIG. 4E, read-out: IC50, growth inhibition, SRB assay), 1970 ± 10 µM; in the assay on PC-3 cells [1] (PC-3, PC-3, SRB assay, FIG. 1A, read-out: IC50, inhibition of cell growth), roughly 3000 µM. Also, the “phosphorylation of Akt” value in the assay on PC-3 cells [2] (PC-3, 6 mM p-TSA) is on record as “inhibited”; in the assay with DU-145 cells [3] (DU-145, 6 mM p-TSA) it was “not modified”. Besides, in the assay with PC-3 cells [2] (PC-3, 6 mM p-TSA, FIG. 3A), the Rb phosphorylation result is reported as “decrease”. Also, the “cyclin D1 protein expression” value in the assay with PC-3 cells [2] (PC-3, 6 mM p-TSA, FIG. 3A) is recorded as “decrease”; in the assay on DU-145 cells [3] (Rb-mutant DU-145, 6 mM p-TSA, FIG. 3A), “decrease”. The “p21 and p27 expression” value in the assay with PC-3 cells [2] (PC-3, 6 mM p-TSA, FIG. 3A) is listed as “neither p21 nor p27 expression was modified”; with DU-145 cells [3] (DU-145, 6 mM p-TSA, FIG. 3A) it was “neither p21 nor p27 expression was modified”. In addition, the “phosphorylation of mTOR, 4E-BP1 and p70S6K” value was “inhibitory effect” in the assay on PC-3 cells [2] (PC-3, 6 mM p-TSA, FIGS. 3B and 3C); “inhibitory effect” in the assay on DU-145 cells [3] (DU-145, 6 mM p-TSA, FIGS. 3B and 3C). For the same molecule, the “expressions of PUMA and Bak” value in the assay with PC-3 cells [2] (PC-3, 24 h, Western blot) was “increase”; in the assay on DU-145 cells [3] (DU-145, 24 h, Western blot), “increase”. The “protein expression of Mcl-1” value in the assay with DU-145 cells [3] (DU-145, 24 h, Western blot, FIG. 2D) was “significantly decreased”. Moreover, the “anti-proliferative effect, clonogenic assay” value in the assay on DU-145 cells [4] is given as “long-term anti-proliferative effect”.

The term IC50 denotes the concentration needed to halve the response being measured.
